Assay results reported in patent EP0184291B1, “Polyether antibiotic A80190” (ELI LILLY AND COMPANY, priority 1984, dated 1986).
≈ marks a conversion by molar mass, not a printed value. Where “and” joins values, the source holds several entries; their conditions need not be identical. Equal values may be shown once. Marks after values point to notes of the source that are not given here.

Legend:
[1] = system: volatile-fatty-acid (VFA) concentrations; test: Ruminant feed-utilization efficiency test (VFA in flasks, method of U.S. Patent 3,794,732); parameters: species or system ruminants; conditions: ratio treated flasks to control flasks
Excerpt: The efficiency of feed use can be monitored by observing the production and concentration of propionate compounds in the rumen using the method described by Arthur P. Raun in U.S. Patent 3,794,732 (see especially Example 5).

Caenorhabditis elegans = test: Anthelmintic activity; type: in vivo; conditions: read-out: active at levels as low as
Excerpt: The A80190 compounds are also anthelmintic agents. For example, A80190 is active against Caenorhabditis elegans at levels as low as 20 ppm.

mustard = test: Herbicidal activity; type: in vivo; conditions: 2 lb/acre (200 gpa), either pre-emergence or post-emergence
Excerpt: (§1) In another aspect, the A80190 compounds have herbicidal activity. For example, A80190 is active against crabgrass, mustard and pigweed at 2 lb/acre (200 gpa) either pre-emergence or post-emergence.

crabgrass = test: Herbicidal activity; type: in vivo; conditions: 2 lb/acre (200 gpa), either pre-emergence or post-emergence
Excerpt: as §1

pigweed = test: Herbicidal activity; type: in vivo; conditions: 2 lb/acre (200 gpa), either pre-emergence or post-emergence
Excerpt: as §1

Solubility = type: physicochemical
[2] = Ion-transport (ionophore) test
Treponema hyodysenteriae = test: Growth inhibition, swine dysentery agent; type: cell-based; conditions: Brachyspira hyodysenteriae; read-out: inhibits the growth at levels as low as
Excerpt: In another aspect the A80190 compounds are useful in the treatment of swine dysentery. A80190 inhibits the growth of Treponema hyodysenteriae, a causative agent of swine dysentery, at levels as low as 0.39 mcg/ml. A preferred method of administration to swine is by incorporation of an appropriate amount of an A80190 compound into the feed ration or drinking water. An appropriate amount will relate to whether the treatment is to prevent or to cure infection. Usually, a lower concentration of active compound is needed to prevent infection than is required for to eliminate infection in animals already afflicted. In general, amounts in the range of from about 20 to about 100 grams of A80190 compound per ton of feed are effective to prevent infection. Amounts in the range of from about 100 to about 500 g of A80190 compound per ton of feed are recommended for treating swine suffering from dysentery. These amounts provide from about 1 to about 5 mg/kg of body weight per day (prophylactic treatment) or from about 5 to about 25 mg/kg of body weight per day (treatment of infected animal). When added to the drinking water, amounts of from about 0.04 to about 0.2 g (prophylactic) or from about 0.2 to about 1 g (therapeutic) of A80190 compound per gallon of water are recommended.

Bacteroides fragilis 111 = test: Agar-dilution assay, anaerobic bacteria; type: cell-based; conditions: 24-hour incubation
Procedure: (§2) One important aspect of the antimicrobial activity of A80190 compounds relates to their activity against anaerobic bacteria. The minimal inhibitory concentrations (MIC's) at which A80190 inhibits various anaerobic bacteria, as determined by standard agar-dilution assay, are summarized in Table VII. End points were read after 24-hour incubation.

[3] = system: Fusobacterium necrophorum 6054A; test: Agar-dilution assay, anaerobic bacteria; type: cell-based; conditions: 24-hour incubation
Procedure: as §2

[4] = system: Peptococcus asaccharolyticus 1302; test: Agar-dilution assay, anaerobic bacteria; type: cell-based; conditions: Peptoniphilus asaccharolyticus, 24-hour incubation
Procedure: as §2

[5] = system: Peptostreptococcus intermedius 1624; test: Agar-dilution assay, anaerobic bacteria; type: cell-based; conditions: 24-hour incubation
Procedure: as §2

[6] = system: Bacteroides vulgatis 1211; test: Agar-dilution assay, anaerobic bacteria; type: cell-based; conditions: 24-hour incubation
Procedure: as §2

[7] = system: Eubacterium aerofaciens 1235; test: Agar-dilution assay, anaerobic bacteria; type: cell-based; conditions: Collinsella aerofaciens, 24-hour incubation
Procedure: as §2

[8] = system: Bacteroides fragilis 1936B; test: Agar-dilution assay, anaerobic bacteria; type: cell-based; conditions: 24-hour incubation
Procedure: as §2

[9] = system: Bacteroides thetaiotaomicron 1438; test: Agar-dilution assay, anaerobic bacteria; type: cell-based; conditions: 24-hour incubation
Procedure: as §2

[10] = system: Bacteroides melaninogenicus 1856/28; test: Agar-dilution assay, anaerobic bacteria; type: cell-based; conditions: Prevotella intermedia, 24-hour incubation
Procedure: as §2

[11] = system: Propionibacterium acnes 79; test: Agar-dilution assay, anaerobic bacteria; type: cell-based; conditions: Cutibacterium acnes, 24-hour incubation
Procedure: as §2

[12] = system: Fusobacterium symbiosum 1470; test: Agar-dilution assay, anaerobic bacteria; type: cell-based; conditions: 24-hour incubation
Procedure: as §2

two-spotted spider mite = test: Acaricidal activity; type: in vivo; conditions: Tetranychus urticae; read-out: active when applied at a rate as low as
Excerpt: The A80190 compounds are also useful as insecticides and acaricides. For example, A80190 is active against the following insects as levels as low as the level indicated in parenthesis: mosquito larvae (<50 ppm), blowfly larvae (35 ppm), adult housefly (35 ppm), and Mexican bean beetle and southern armyworm (<100 ppm). A80190 is also active against mites such as two-spotted spider mite when applied at a rate as low as 25 ppm.

Neurospora crassa = test: Disc-diffusion method; type: cell-based; conditions: 6-mm pads dipped in 1 mg of compound per ml, read-out: Zone of Inhibition (mm diameter)
Procedure: (§3) The inhibitory activity of A80190 is illustrated in Table VI. Activity was measured by the conventional disc-diffusion method (6-mm pads were dipped in solutions containing 1 mg of compound per ml of solution; pads were placed on agar plates seeded with test organism).

Staphylococcus aureus = test: Disc-diffusion method; type: cell-based; conditions: 6-mm pads dipped in 1 mg of compound per ml, read-out: Zone of Inhibition (mm diameter)
Procedure: as §3

Mycobacterium avium = test: Disc-diffusion method; type: cell-based; conditions: 6-mm pads dipped in 1 mg of compound per ml, read-out: Zone of Inhibition (mm diameter)
Procedure: as §3

Bacillus subtilis = test: Disc-diffusion method; type: cell-based; conditions: 6-mm pads dipped in 1 mg of compound per ml, read-out: Zone of Inhibition (mm diameter)
Procedure: as §3

Candida albicans = test: Disc-diffusion method; type: cell-based; conditions: 6-mm pads dipped in 1 mg of compound per ml, read-out: Zone of Inhibition (mm diameter)
Procedure: as §3

[13] = system: Saccharomyces pastorianus; test: Disc-diffusion method; type: cell-based; conditions: 6-mm pads dipped in 1 mg of compound per ml, read-out: Zone of Inhibition (mm diameter)
Procedure: as §3

Micrococcus luteus = test: Disc-diffusion method; type: cell-based; conditions: 6-mm pads dipped in 1 mg of compound per ml, read-out: Zone of Inhibition (mm diameter)
Procedure: as §3

For `CC[C@@H](O)[C@]1(C)C[C@H](C)[C@@](O)([C@H]2C[C@H](C)[C@H]([C@]3(C)C[C@@H](O[C@H]4CC[C@H](OC)[C@@H](C)O4)[C@H]([C@@H]4CC[C@@]5(O[C@H]([C@@H](C)[C@@H](OC)[C@H](C)C(=O)O)[C@H](C)[C@@H](OC)[C@H]5C)O4)O3)O2)O1` [Example A80190], the “Molar % Acetate” value ([1]; Dosage 0.3 mcg/ml) was 0.970, the “Molar % Butyrate” value ([1]; Dosage 0.3 mcg/ml) was 0.819 and the “Molar % Propionate” value ([1]; Dosage 0.3 mcg/ml) was 1.220*. For the same compound, the “Total VFA/ Control VFA mM/L” value ([1]; Dosage 0.3 mcg/ml) was 0.967, the “Molar % Acetate” value ([1]; Dosage 1 mcg/ml) was 0.926 and 0.986 and 0.892 and 1.016 and the “Molar % Butyrate” value ([1]; Dosage 1 mcg/ml) was 0.529 and 0.851 and 0.813 and 0.706. For the same compound, the “Molar % Propionate” value ([1]; Dosage 1 mcg/ml) was 1.566* and 1.185* and 1.403* and 1.247*, the “Total VFA/ Control VFA mM/L” value ([1]; Dosage 1 mcg/ml) was 0.913 and 0.916 and 0.887 and 0.857 and the “Molar % Acetate” value ([1]; Dosage 3 mcg/ml) was 0.998. For the same compound, the “Molar % Butyrate” value ([1]; Dosage 3 mcg/ml) was 0.611, the “Molar % Propionate” value ([1]; Dosage 3 mcg/ml) was 1.368* and the “Total VFA/ Control VFA mM/L” value ([1]; Dosage 3 mcg/ml) was 0.963. The minimal effective concentration (Caenorhabditis elegans) was 20 µg/mL, the herbicidal activity (mustard) was “active” and the herbicidal activity (crabgrass) was “active”. The herbicidal activity (pigweed) was “active”, the Solubility (Solubility; lower alcohols such as methanol, ketones such as acetone, esters such as ethyl acetate, halogenated hydrocarbons such as chloroform, diethyl ether, benzene, toluene, warm hexane) was “soluble” and the Solubility (Solubility; water) was “Insoluble”. For the same compound, the “ionophorous effect, comparison of cations” value ([2]; 0.2 µg/ml concentration) was “even greater ionophorous effect with Cs⁺ than with Na⁺”, the ionophorous activity ([2]; 0.5 µg/ml concentration) was “showed ionophorous activity” and the “ionophorous activity, comparison of cations” value ([2]; 0.5 µg/ml concentration) was “its activity with Na⁺, K⁺ and Rb⁺ was better than that with Cs⁺ or Li⁺”. For the same compound, the MIC (Treponema hyodysenteriae) was 0.39 µg/mL (≈ 0.47 µM), the MIC (Bacteroides fragilis 111) was greater than 128 µg/mL and the MIC [3] was 16 µg/mL (≈ 19.3 µM). It also gave an MIC [4] of 1 µg/mL (≈ 1.21 µM), an MIC [5] of 1 µg/mL (≈ 1.21 µM) and an MIC [6] of 16 µg/mL (≈ 19.3 µM). It also gave an MIC [7] of less than 0.5 µg/mL, an MIC [8] greater than 128 µg/mL and an MIC [9] greater than 128 µg/mL. For the same compound, the MIC [10] was greater than 128 µg/mL, the MIC [11] was 1 µg/mL (≈ 1.21 µM) and the MIC [12] was 8 µg/mL (≈ 9.65 µM). The minimal effective concentration (two-spotted spider mite) was 25 µg/mL, the zone of inhibition at 1000 µg/mL (Neurospora crassa) was 14 mm and the zone of inhibition at 1000 µg/mL (Staphylococcus aureus) was 17 mm. For the same compound, the zone of inhibition at 1000 µg/mL (Mycobacterium avium) was 21 mm, the zone of inhibition at 1000 µg/mL (Bacillus subtilis) was 23 mm and the zone of inhibition at 1000 µg/mL (Candida albicans) was 14 mm. It also gave a zone of inhibition at 1000 µg/mL [13] of 10 mm and a zone of inhibition at 1000 µg/mL (Micrococcus luteus) of 20 mm.
